In patent US9238643B2, “Amide compounds” (Guangzhou Institutes of Biomedicine and Health, Chinese …, priority 2010, dated 2016):

Test system: IL-1β secretion of BV2
Experiment: Inhibition of LPS-induced IL-1β secretion of BV2 microglial cells (ELISA)
Assay type: cell-based
Conditions: BV-2, 24 hours; for IC50: BV2 cells, 300 ng/ml LPS induction, IL-1β by ELISA, read-out: IC50 of inhibition of the compounds of the present application to IL-1β secretion of BV2; for inhibition at 0.02 µM: Mus musculus, IL-1β secretion of BV2, compound concentration 20 nM, LPS induction, read-out: Inhibition rate (%) at 20 nM
Description: 1. […] microglial cell BV2 and Glioma cell line C6 are incubated in DMEM culture medium with 10% FBS, and the 6th to 15th generation culture cells are applicable for compound activity selection. Culture cells are innoculated on the 24-well cell culturing plate with 50,000 cells/well, after one day culturing, switch to low serum medium (with 2% FBS) for another 16 hours culturing. Add 300 ng/ml (for induction of BV2 cells) or 1 mg/mL (for induction of C6 cells) LPS (Salmonella typhimutium) to the culture medium to induce the IL-1β secretion of culture cells. At the same time, add sample to be determined (with DMSO≦0.1%) at concentrations of 200 pM, 20 nM, 2 μM and 200 μM; add 0.1% DMSO to blank as solvent control.
2. 24 hours after LPS induction/drug treatment, collect the culture solution and quantitatively measure the level of IL-1β. Centrifuge the culture solution at 8,000 g for 10 min at 4° C., and remove the floating particle impurities. Dilute the supernant one time, and take 150 μL sample for ELISA (Biosource) measurement.
3. Treatment of culture cells and ELISA measurement are conducted with double blind method.
4 Inhibition efficiency of candidate compound is calculated according to formula, and IC50 of every kind of candidate compound is calculated. Inhibition efficiency(%)=([IL-1β]LPS induction−[IL-1β]medical treatment)/[IL-1β]LPS induction×100%. Formula
5. Efficiency evaluation of candidate compound: positive inhibition rate of compound to IL-1β secretion of BV2 is the standard judgment of compounds efficiency; negative inhibition rate of compound to IL-1β secretion of C6 is the standard judgment of compounds safety.

IC50 [nM] | SMILES | inhibition at 0.02 µM [%]
0.56 | Cc1cc(-c2ccccc2)nnc1C(=O)N1CCN(c2ccc(F)cc2)CC1 [Compound 4, (4-(4-fluorophenyl)piperazinyl) (4-methyl-6-phenylpyridazinyl) ketone] | 54.6
3.38 | O=C(c1nc(-c2ccccc2)nc2ccccc12)N1CCN(c2ccc(F)cc2)CC1 [Compound 11, (4-(4-fluorophenyl)piperazinyl) (2-phenylquinazolinyl) ketone] | 
1.42 | O=C(c1nc(-c2ccccc2)nc2ccccc12)N1CCN(c2ncc(F)cn2)CC1 [Compound 12, (4-(5-fluoropyrimid-2-yl)piperazinyl)(2-phenylquinazolinyl) ketone] | 
0.16 | O=C(c1nc(-c2ccccc2)nc2ccccc12)N1CCN(c2ncccn2)CC1 [Compound 12a, (4-(pyrimid-2-yl)piperazinyl) (2-phenylquinazolinyl) ketone] | 46.1
24.3 | O=C(c1nc(-c2ccccc2)nc2ccccc12)N1CCN(c2ccccn2)CC1 [Compound 13, (4-(2-pyridinyl)piperazinyl)(2-phenylquinazolinyl)ketone] | 
42.5 | O=C(c1n[nH]c2c(F)ccc(F)c12)N1CCN(c2ccc(F)cc2)CC1 [Compound 20, (4-(4-fluorophenyl)piperazinyl) (4,7-difluoroindazol-3-yl) ketone] | 48.06 ± 0.0618
5.49 | Cc1cc(-c2ccccc2)nnc1C(=O)N1CCN(c2ncc(F)cn2)CC1 [Compound 24] | 
0.11 | Cc1cc(-c2ccccc2)nnc1C(=O)N1CCN(C)CC1 [Compound 26, (N-methylpiperazinyl) (4-methyl-6-phenylpyridazinyl) ketone] | 

SMILES | IC50 [nM] | inhibition at 0.02 µM [%]
Cc1cc(-c2ccccc2)nnc1C(=O)N1CCN(c2ncccn2)CC1 [Compound 5, (2-pyrimidylpiperazinyl)(4-methyl-6-phenylpyridazinyl)ketone] | 0.6 | 54.5
